The values below are quoted from earlier work in patent publication US20230233180A1, “Emergency Ultrasound Gel” (priority 2022, published 2023).

Each structure is given as a SMILES string. ≈ marks a conversion by molar mass, not a printed value. Like-named read-outs stand apart in the source and are kept apart here.

The subject of series [1] is wide variety of yeast and fungi.
The subject of the next series is wide range of bacteria. Conditions: bactericidal.

`O=C([O-])CNCO.[Na+]` [Sodium hydroxymethylglycinate]: in series [1], the antifungal effect result is recorded as “does not have strong antifungal effect”. Besides, the “concentration that kills a wide range of bacteria” value in the series with wide range of bacteria was 0.09%.

As a reminder, the MIC is the lowest concentration that inhibits growth of the organism. As to `CCN(CC)CC(=O)Nc1c(C)cccc1C` [Lidocaine], the MIC in the series on Candida albicans (Canddia albicans M9) was 2500 µg/mL (≈ 10.7 mM); in the series with Candida albicans (Candida albicans 10231), 5000 µg/mL (≈ 21.3 mM); in the series with Candida albicans (Candida albicans H33) it was 5000 µg/mL (≈ 21.3 mM); in the series with Candida albicans (Candida albicans H37), 10000 µg/mL (≈ 42.7 mM); in the series with Candida albicans (Candida albicans H38) it was 5000 µg/mL (≈ 21.3 mM); in the series on Candida albicans (Candida albicans M28) it was 2500 µg/mL (≈ 10.7 mM). Further, the MIC with Candida albicans (Candida albicans M36) was 5000 µg/mL (≈ 21.3 mM); in the series on Candida albicans (Candida albicans SCO) it was 2500 µg/mL (≈ 10.7 mM); in the series on Candida albicans (Candida albicans Ser5), 5000 µg/mL (≈ 21.3 mM); with Candida albicans (Candida. albicans H65) it was 2500 µg/mL (≈ 10.7 mM).

On to `CCCCN1CCCCC1C(=O)Nc1c(C)cccc1C` (stereo not shown) [Bupivacaine], for which the MIC was 1300 µg/mL (≈ 4.51 mM) in the series with Candida albicans (Canddia albicans M9); 2500 µg/mL (≈ 8.67 mM) in the series on Candida albicans (Candida albicans 10231); 2500 µg/mL (≈ 8.67 mM) in the series on Candida albicans (Candida albicans H33); 5000 µg/mL (≈ 17.3 mM) in the series on Candida albicans (Candida albicans H37); 2500 µg/mL (≈ 8.67 mM) with Candida albicans (Candida albicans H38); 1300 µg/mL (≈ 4.51 mM) with Candida albicans (Candida albicans M28). In addition, the MIC in the series on Candida albicans (Candida albicans M36) is 2500 µg/mL (≈ 8.67 mM); in the series on Candida albicans (Candida albicans SCO), 1300 µg/mL (≈ 4.51 mM); with Candida albicans (Candida albicans Ser5), 2500 µg/mL (≈ 8.67 mM); in the series with Candida albicans (Candida. albicans H65), 1300 µg/mL (≈ 4.51 mM).
